# According to patent US11098055B2, “Ester ACC inhibitors and uses thereof” (Gilead Apollo, LLC, priority 2015, dated 2021):
# Read-outs that look alike come from different tables or passages of the source.
# Key:
# fACC2 = fACC2 (UniProt Q00955); assay: In vitro ACC2 inhibition assay (ADP-Glo), fungal ACC2; type: biochemical
# Method: An exemplary procedure for the in vitro ACC inhibition assay, which can be used to determine the inhibitory action of compounds of the invention toward either human (hACC2) or fungal (fACC2) ACC2, follows. The ADP-Glo™ Kinase Assay kit from Promega was used. The ADP-Glo™ Kinase Assay is a luminescent ADP detection assay to measure enzymatic activity by quantifying the amount of ADP produced during an enzyme reaction. The assay is performed in two steps; first, after the enzyme reaction, an equal volume of ADP-Glo™ Reagent is added to terminate the reaction and deplete the remaining ATP. Second, the Kinase Detection Reagent is added to simultaneously convert ADP to ATP and allow the newly synthesized ATP to be measured using a luciferase/luciferin reaction. Luminescence can be correlated to ADP concentrations by using an ATP-to-ADP conversion curve. The detailed procedure is as follows. 50 μL of the compound being tested (600 μM in DMSO) was added to a 384-well dilution plate. The compound was diluted 1:3 in succession in DMSO for each row for 11 wells. 0.5 μL ACC2 working solution was added to 384-well white Optiplate assay plate. 0.5 μL diluted compound solution in each column from step 2 was added to assay plate, each row containing 2 replicates. For the last 2 rows, 0.5 μL negative control (DMSO) was added in one row and 0.5 μL positive control (compound I-97) in the other. The plates were incubated at room temperature for 15 minutes. 5 μL substrate working solution was added to each well to initiate reaction. Final ACC2 reaction concentrations consist of: 5 nM ACC2, 20 μM ATP, 20 μM acetyl-CoA, 12 mM NaHCO3, 0.01% Brij35, 2 mM DTT, 5% DMSO, test compound concentrations: 30 μM, 10 μM, 3.33 μM, 1.11 μM, 0.37 μM, 0.123 μM, 0.0411 μM, 0.0137 μM, 0.00457 μM, 0.00152 μM, and 0.00051 μM. Plates were incubated at room temperature for 60 minutes. 10 μL ADP glo reagent was added. Plates were incubated at room temperature for 40 minutes. 20 μL kinase detection reagent was added. Plates were incubated at room temperature for 40 minutes, and then read on a Perkin Elmer EnVision 2104 plate reader for luminescence as Relative Light Units (RLU).
# Data for each concentration, as well as the positive and negative controls, were averaged, and the standard deviation calculated. Percent inhibition was calculated by the formula: 100×(average negative control−compound)/(average negative control−average positive control). The IC50 for each compound was calculated by fitting the data with a non-linear regression equation: Y=Bottom+(Top−Bottom)/(1+10^((Log IC50−X)*HillSlope)), where X is the log of compound concentration and Y is percent inhibition.
# Diplodia maydis (Dm) = assay: Growth inhibition assay of fungal pathogens; type: cell-based; conditions: Stenocarpella maydis, 48 h, read-out: Concentration at 90% Inhibition Dm
# Method: (§1) Compounds of the present invention were evaluated in a growth inhibition assay to determine the ability to control the growth of fungal pathogens, such as Botrtyis cinerea (Bc), Collectotrichum graminicola (Cg), Diplodia maydis (Dm), Fusarium moniliforme (Fm), Fusarium virguhforme (Fv), Phytophthora capsici (Pc), Rhizoctonia solani (Rs), and Septoria tritici (St). Compounds to be tested were dissolved in DMSO at 2.5 mg/ml to produce compound stock solutions (“stocks”). Stocks were diluted with DMSO by a five-fold dilution in a 96-well stock plate, and two sets of final concentrations of 50, 10, and 2 ppm or 2, 0.4, and 0.08 ppm were obtained in vitro. A set of positive controls was also prepared, with various concentrations of Soraphen (2, 0.4, and 0.08 ppm), Metalaxyl (1.1, 0.22, and 0.04 ppm), and Metconazole (2, 0.4, and 0.08 ppm or 0.2, 0.04, and 0.008 ppm) after the five-fold dilutions. Negative controls on each plate included 2% DMSO, water, and a blank (media+2% DMSO). Fungal spores were isolated from previously sub-cultured plates of Botrtyis cinerea (Bc), Collectotrichum graminicola (Cg), Diplodia maydis (Dm), Fusarium moniliforme (Fm), Fusarium virguliforme (Fv), Phytophthora capsici (Pc), and Septoria tritici (St). The isolated spores were diluted to individual concentrations with a 17% V8 liquid media. For Rhizoctonia solani (Rs) and Pythium irregulare, 1.5 mm mycelial plugs were used in place of spores and ¼ Potato Dextrose Broth (PDB) was used for dilution. The spore concentrations and plug sizes were based on growth curves generated at 48 hours for each pathogen. In a second 96-well plate, the spores or mycelial plugs, media, diluted compound solutions, and controls were combined. Once the compound was added, a true final concentration of compound in each well was measured by an OD600 reading, which adjusted for any compound precipitation that might have occurred in the well. Plate readings were repeated at both 24 and 48 hours. The blank negative control was used as a background subtraction. Additional visual ratings were performed at both 24 and 48 hours for checking on precipitation and confirming efficacy. Visual and OD600 ratings of the compounds at 48 hours were compared to the 2% DMSO negative control, and the percent of pathogen growth inhibition was determined based on those values.
# Botrtyis cinerea (Bc) = assay: Growth inhibition assay of fungal pathogens; type: cell-based; conditions: 48 h, read-out: Concentration at 90% Inhibition Bc
# Method: as §1
# [1] = system: Phytophthora capsici (Pc); assay: Growth inhibition assay of fungal pathogens; type: cell-based; conditions: 48 h, read-out: Concentration at 90% Inhibition Pc
# Method: as §1
# Rhizoctonia solani (Rs) = assay: Growth inhibition assay of fungal pathogens; type: cell-based; conditions: 48 h, read-out: Concentration at 90% Inhibition Rs
# Method: as §1
# Septoria tritici (St) = assay: Growth inhibition assay of fungal pathogens; type: cell-based; conditions: Zymoseptoria tritici, 48 h, read-out: Concentration at 90% Inhibition St
# Method: as §1
# [2] = system: Collectotrichum graminicola (Cg); assay: Growth inhibition assay of fungal pathogens; type: cell-based; conditions: 48 h, read-out: Concentration at 90% Inhibition Cg
# Method: as §1
# [3] = system: Fusarium virguliforme (Fv); assay: Growth inhibition assay of fungal pathogens; type: cell-based; conditions: 48 h, read-out: Concentration at 90% Inhibition Fv
# Method: as §1
# [4] = system: Fusarium moniliforme (Fm); assay: Growth inhibition assay of fungal pathogens; type: cell-based; conditions: Fusarium verticillioides, 48 h, read-out: Concentration at 90% Inhibition Fm
# Method: as §1
# Sequence of fACC2 (Q00955 whole entry): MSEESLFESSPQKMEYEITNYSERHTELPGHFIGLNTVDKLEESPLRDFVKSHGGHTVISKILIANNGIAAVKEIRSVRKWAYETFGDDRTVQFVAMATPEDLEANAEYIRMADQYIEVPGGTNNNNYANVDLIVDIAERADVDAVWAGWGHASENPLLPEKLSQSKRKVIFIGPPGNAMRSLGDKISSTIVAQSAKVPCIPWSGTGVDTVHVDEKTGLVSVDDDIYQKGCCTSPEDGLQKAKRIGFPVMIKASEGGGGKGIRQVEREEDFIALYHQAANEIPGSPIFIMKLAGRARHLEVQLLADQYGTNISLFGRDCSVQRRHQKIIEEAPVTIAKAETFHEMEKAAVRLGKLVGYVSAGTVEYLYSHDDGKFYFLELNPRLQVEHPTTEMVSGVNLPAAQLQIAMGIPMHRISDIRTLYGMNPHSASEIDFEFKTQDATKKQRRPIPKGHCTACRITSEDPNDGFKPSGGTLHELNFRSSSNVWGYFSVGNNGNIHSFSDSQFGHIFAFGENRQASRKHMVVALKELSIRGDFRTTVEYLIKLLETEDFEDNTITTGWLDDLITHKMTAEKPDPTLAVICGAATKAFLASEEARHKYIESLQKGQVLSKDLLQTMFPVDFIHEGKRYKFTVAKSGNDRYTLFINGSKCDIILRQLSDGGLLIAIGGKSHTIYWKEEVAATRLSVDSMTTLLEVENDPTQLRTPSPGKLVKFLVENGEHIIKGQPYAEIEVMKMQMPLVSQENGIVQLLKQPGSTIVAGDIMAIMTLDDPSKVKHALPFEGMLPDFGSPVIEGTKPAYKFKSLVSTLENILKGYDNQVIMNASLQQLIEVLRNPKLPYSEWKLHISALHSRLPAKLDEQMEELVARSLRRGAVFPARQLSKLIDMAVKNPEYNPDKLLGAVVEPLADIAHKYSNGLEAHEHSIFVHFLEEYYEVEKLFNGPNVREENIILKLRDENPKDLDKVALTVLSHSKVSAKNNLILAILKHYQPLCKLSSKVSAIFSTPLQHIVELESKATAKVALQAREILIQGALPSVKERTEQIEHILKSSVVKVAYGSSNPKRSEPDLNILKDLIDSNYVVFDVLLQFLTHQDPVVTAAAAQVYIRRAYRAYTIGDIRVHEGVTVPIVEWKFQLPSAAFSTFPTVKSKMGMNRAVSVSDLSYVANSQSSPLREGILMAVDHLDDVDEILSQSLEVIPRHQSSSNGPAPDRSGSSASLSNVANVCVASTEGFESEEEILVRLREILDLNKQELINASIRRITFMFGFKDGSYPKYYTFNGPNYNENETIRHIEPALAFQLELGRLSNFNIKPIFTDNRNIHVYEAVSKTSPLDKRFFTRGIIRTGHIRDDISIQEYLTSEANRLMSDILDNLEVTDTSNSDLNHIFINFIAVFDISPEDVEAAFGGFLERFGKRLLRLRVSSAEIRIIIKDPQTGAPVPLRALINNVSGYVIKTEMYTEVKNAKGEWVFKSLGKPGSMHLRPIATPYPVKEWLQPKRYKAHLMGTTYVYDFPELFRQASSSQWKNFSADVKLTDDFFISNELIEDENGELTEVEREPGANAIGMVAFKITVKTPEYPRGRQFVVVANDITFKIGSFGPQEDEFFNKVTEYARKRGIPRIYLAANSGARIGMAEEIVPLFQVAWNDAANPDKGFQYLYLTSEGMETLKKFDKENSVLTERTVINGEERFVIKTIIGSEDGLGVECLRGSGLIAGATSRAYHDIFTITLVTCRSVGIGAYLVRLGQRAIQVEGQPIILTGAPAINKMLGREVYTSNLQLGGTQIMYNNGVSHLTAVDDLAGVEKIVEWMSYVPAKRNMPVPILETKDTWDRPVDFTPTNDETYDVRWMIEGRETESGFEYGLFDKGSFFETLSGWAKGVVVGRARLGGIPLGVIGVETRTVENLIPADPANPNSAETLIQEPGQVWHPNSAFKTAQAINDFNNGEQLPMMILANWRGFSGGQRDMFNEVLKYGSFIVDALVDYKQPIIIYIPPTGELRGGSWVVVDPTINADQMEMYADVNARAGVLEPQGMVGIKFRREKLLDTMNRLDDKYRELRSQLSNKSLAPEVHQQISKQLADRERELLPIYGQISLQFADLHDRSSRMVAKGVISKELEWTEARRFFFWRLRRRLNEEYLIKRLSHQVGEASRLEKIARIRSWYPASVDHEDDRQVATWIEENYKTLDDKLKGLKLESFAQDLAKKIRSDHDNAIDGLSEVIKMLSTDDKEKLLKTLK
Structure (SMILES),IC50 (fACC2; Table 2a) [nM],IC50 (fACC2; Table 2b (additional results)) [nM],IC90 (Diplodia maydis (Dm); Table 4a) [µg/mL],IC90 (Diplodia maydis (Dm); Table 4b) [µg/mL],IC90 (Botrtyis cinerea (Bc); Table 4a) [µg/mL],IC90 (Botrtyis cinerea (Bc); Table 4b) [µg/mL],IC90 ([1]; Table 4a) [µg/mL],IC90 ([1]; Table 4b) [µg/mL],IC90 (Rhizoctonia solani (Rs); Table 4a) [µg/mL],IC90 (Rhizoctonia solani (Rs); Table 4b) [µg/mL],IC90 (Septoria tritici (St); Table 4a) [µg/mL],IC90 (Septoria tritici (St); Table 4b) [µg/mL],IC90 ([2]; Table 4a) [µg/mL],IC90 ([2]; Table 4b) [µg/mL],IC90 ([3]; Table 4a) [µg/mL],IC90 ([3]; Table 4b) [µg/mL],IC90 ([4]; Table 4a) [µg/mL],IC90 ([4]; Table 4b) [µg/mL]
"CCOC(=O)c1sc2c(c1C)c(=O)n(C(C)(C)C(=O)N1CCCCC1)c(=O)n2C[C@H](OC1CCOCC1)c1ccccc1OC [Compound I-2, ethyl (R)-1-(2-(2-methoxyphenyl)-2-((tetrahydro-2H-pyran-4-yl)oxy)ethyl)-5-methyl-3-(2-methyl-1-oxo-1-(piperidin-1-yl)propan-2-yl)-2,4-dioxo-1,2,3,4-tetrahydrothieno[2,3-d]pyrimidine-6-carboxylate]",0.6 to 3,0.3 to 3,2,2,0.4,0.4,≥ 50,≥ 50,2,0.4,≥ 50,10,0.4,0.4,0.4,0.4,0.4,0.4
"CCNC(=O)C(C)(C)n1c(=O)c2c(C)c(C(=O)OCC)sc2n(C[C@H](OC(C)C)c2ccccc2OC)c1=O [Compound I-4, (R)-ethyl 3-(1-(ethylamino)-2-methyl-1-oxopropan-2-yl)-1-(2-isopropoxy-2-(2-methoxyphenyl)ethyl)-5-methyl-2,4-dioxo-1,2,3,4-tetrahydrothieno[2,3-d]pyrimidine-6-carboxylate]",3 to 10,3 to 10,≥ 50,10,2,2,≥ 50,≥ 50,≥ 50,≥ 50,≥ 50,≥ 50,≥ 50,10,2,2,0.4,0.4
"CCOC(=O)c1sc2c(c1C)c(=O)n(C(C)(C)C(=O)N1CCOCC1)c(=O)n2C[C@H](OC(C)C)c1ccccc1OC [Compound I-5, (R)-ethyl 1-(2-isopropoxy-2-(2-methoxyphenyl)ethyl)-5-methyl-3-(2-methyl-1-morpholino-1-oxopropan-2-yl)-2,4-dioxo-1,2,3,4-tetrahydrothieno[2,3-d]pyrimidine-6-carboxylate]",3 to 10,3 to 10,2,2,0.4,0.4,≥ 50,≥ 50,≥ 50,≥ 50,≥ 50,≥ 50,≥ 50,10,≥ 50,10,0.4,0.4
"CCNC(=O)[C@H](C)n1c(=O)c2c(C)c(C(=O)OCC)sc2n(C[C@H](OCCC#N)c2cc(F)ccc2OC)c1=O [Compound I-42, ethyl 1-((R)-2-(2-cyanoethoxy)-2-(5-fluoro-2-methoxyphenyl)ethyl)-3-((S)-1-(ethylamino)-1-oxopropan-2-yl)-5-methyl-2,4-dioxo-1,2,3,4-tetrahydrothieno[2,3-d]pyrimidine-6-carboxylate]",,0.3 to 3,,2,,0.4,,≥ 50,,2,,≥ 50,,2,,0.4,,0.08
"CCOC(=O)c1sc2c(c1C)c(=O)n(C(C)(C)C(=O)N1CCCC1)c(=O)n2C[C@H](OCCO)c1cc(F)ccc1OC [Compound I-12, (R)-ethyl 1-(2-(5-fluoro-2-methoxyphenyl)-2-(2-hydroxy-ethoxy)ethyl)-5-methyl-3-(2-methyl-1-oxo-1-(pyrrolidin-1-yl)propan-2-yl)-2,4-dioxo-1,2,3,4-tetrahydrothieno[2,3-d]pyrimidine-6-carboxylate]",0.6 to 3,0.3 to 3,2,2,2,2,≥ 50,≥ 50,0.4,0.4,≥ 50,≥ 50,0.4,0.4,2,2,0.4,0.4
"CCOC(=O)c1sc2c(c1C)c(=O)n([C@@H](C)C(=O)N1CCCC1)c(=O)n2C[C@H](OCCC#N)c1cc(F)ccc1OC [Compound I-23, ethyl 1-((R)-2-(2-cyanoethoxy)-2-(5-fluoro-2-methoxy-phenyl)ethyl)-5-methyl-2,4-dioxo-3-((S)-1-oxo-1-(pyrrolidin-1-yl)propan-2-yl)-1,2,3,4-tetrahydrothieno[2,3-d]pyrimidine-6-carboxylate]",,3 to 10,,10,,10,,≥ 50,,10,,≥ 50,,≥ 50,,≥ 50,,2
"CCOC(=O)c1sc2c(c1C)c(=O)n(C(C)(C)C(=O)NC(C)C)c(=O)n2C[C@H](O)c1cc(F)ccc1OC [Compound I-19, (R)-ethyl 1-(2-(5-fluoro-2-methoxyphenyl)-2-hydroxyethyl)-3-(1-(isopropylamino)-2-methyl-1-oxopropan-2-yl)-5-methyl-2,4-dioxo-1,2,3,4-tetrahydrothieno[2,3-d]pyrimidine-6-carboxylate]",,,2,2,0.4,0.4,≥ 50,≥ 50,0.4,0.4,≥ 50,≥ 50,2,2,0.08,0.08,0.08,0.08
